Measured values as given in patent publication US20200188477A1, “A MEDICAMENT FOR THE TREATMENT OF DISEASES BY BIOFILM FORMING MICROORGANISMS” (priority 2017, published 2020).

Tested on: M. smegmatis over-expressing M. tuberculosis PpiB protein
Assay: Biofilm formation assay (crystal violet)
Format: cell-based, Mycobacterium smegmatis
Details: Ms_PpiB (Tet+), 7 days, absorbance 550 nm

Compound: C[C@H]1O[C@H](O[C@H]2[C@H](O)[C@@H](O)[C@@H](O[C@H]3[C@H](O)[C@@H](O)C(O)O[C@@H]3CO)O[C@@H]2CO)[C@H](O)[C@@H](O)[C@@H]1N[C@H]1C=C(CO)[C@@H](O)[C@H](O)[C@H]1O (stereo partly shown) [acarbose]
- concentration at which treatment significantly reduced biofilm formation: above 500 μg/ml
